Consider three compounds from publication PMC9845707, “Involvement of three chemosensory proteins in perception of host plant volatiles in the tea green leafhopper, Empoasca onukii” (Frontiers in Physiology, 2023).

In one assay the test system is E. onukii adults. In words: Y-tube olfactometer assay (behavioral response). It counts as in vivo, Empoasca onukii. Conditions: 20 μL of 10 μg/μL in methanol, 90 adults per volatile. The method, then: We use a Y-tube olfactometer (1.5 cm in diameter, arms with 8 cm length, and a stem with 18 cm length) to detect the behavioral response of E. onukii to volatiles. The incoming air to the tube was firstly filtered using active carbon and then humidified with the ultrapure water. The air through the arms was blown at a constant flow ([…]). A total of 20 μL tested volatile oil (10 μg/μL in methanol (HPLC)) pipetted onto 1 cm diameter filter paper. This filter paper was placed in the chamber, which connected to one arm of the Y-tube olfactometer. As control, the same filter paper treated with 20 μL of methanol was placed in the chamber connected to another arm of the Y-tube. This experiment was performed in the dark room, which employed a light-emitting diode as the light source. Each adult was introduced into the middle of the stem of the Y-tube and the individuals that made a choice within 8 min were recorded. Individuals moving toward the odorant source for half of the arm distance and stayed for 1 minute were recorded as odorant choice. For each volatile component, 90 adult were used. After 10 insects were tested, the Y-tube olfactometer was washed with 75% ethanol and air-dried, and tested volatiles were placed in another arm for the subsequent tests.

The next assay addresses EonuCSP 6-1 (Empoasca onukii, UniProt A0A343WH12). In words: Competitive fluorescence binding assay (1-NPN probe) with recombinant EonuCSP6-1. The procedure:
(§1) N-phenyl-1-naphthylamine (1-NPN) was used as the fluorescent probe. The excitation wavelength in the fluorescence spectrometer was set to 337 nm, which was the results of an optimization that we achieved in lab. The scanning wavelength was 420–600 nm.
(§2) The tested chemicals were dissolved in methanol in preparation for 1 mM stock solution. […] We determined the binding constants of 1-NPN by Scatchard formula. […] The binding affinities of the competitors were evaluated from the corresponding IC50 according to the equation: K i = IC50/(1 + [1-NPN]/K1-NPN).

Another assay addresses EonuCSP4 (Empoasca onukii, UniProt A0A343WGZ9). In words: Competitive fluorescence binding assay (1-NPN probe) with recombinant EonuCSP4. The procedure: as §1, §2
For a further assay, the target named is EonuCSP6-2 (Empoasca onukii, UniProt A0A343WH13). As to the kind of experiment: Competitive fluorescence binding assay (1-NPN probe) with recombinant EonuCSP6-2. The method, then: as §1, §2
EonuCSP6-2, sequence (A0A343WH13 entry or part of it): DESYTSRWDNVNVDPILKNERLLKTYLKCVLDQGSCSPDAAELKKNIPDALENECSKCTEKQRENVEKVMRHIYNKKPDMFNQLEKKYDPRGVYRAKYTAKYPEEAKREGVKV

EonuCSP 6-1, sequence (A0A343WH12 entry or part of it): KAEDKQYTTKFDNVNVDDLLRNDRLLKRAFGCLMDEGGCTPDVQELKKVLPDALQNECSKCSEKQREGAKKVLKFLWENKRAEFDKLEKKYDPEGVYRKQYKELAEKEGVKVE
EonuCSP4, sequence (A0A343WGZ9 entry or part of it): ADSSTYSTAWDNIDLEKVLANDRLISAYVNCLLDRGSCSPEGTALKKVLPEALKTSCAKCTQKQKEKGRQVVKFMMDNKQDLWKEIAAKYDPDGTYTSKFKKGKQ

Turning to `CC/C=C\CCOC(=O)CCCC` [Cis-3-Hexenyl n-valerate], the “behavioral response of E. onukii adults (choice versus methanol control)” value in the assay on E. onukii adults is listed as “significant preference”.

The Kd is a measure of binding affinity in units of concentration. On to `c1ccc(Nc2cccc3ccccc23)cc1` [1-NPN, N-phenyl-1-naphthylamine], for which the Kd on EonuCSP 6-1 came to 12.5 µM; at EonuCSP4, 11 µM; at EonuCSP6-2 it was 10.2 µM.

The term IC50 denotes the concentration at which inhibition is half-maximal. As to `O=Cc1ccccc1` [Benzaldehyde], in the assay with E. onukii adults, the “behavioral response of E. onukii adults (choice versus methanol control)” value is on record as “significant preference”. Also, the IC50 on EonuCSP 6-1 is more than 20 µM.
